From patent US8618149B2, “Inhibition of biofilms in plants with imidazole derivatives” (North Carolina State University, priority 2007, dated 2013)
Structures can show the parent of a compound that is named as a salt.

Key:
[1] = tested on: Xanthomonas strain Xcv 135; experiment: Biofilm inhibition, crystal violet biofilm attachment assay on PVC microtiter wells; format: cell-based; conditions: biofilm formation, starting OD600 0.55, 28° C., 6 hours, static
Protocol: Activity Testing. A standard crystal violet reporter assay is employed to assess the effect of compounds on the formation of biofilms. Among others, the following strains are tested:
Bacteria are allowed to form biofilms in a multi-well plate in the absence or presence of one or more compounds. Planktonic (or free growing) bacteria are then removed, wells washed vigorously, and crystal violet added. Crystal violet stains the remaining bacteria which, following ethanol solubilization, is quantitated by spectrophotometry (A540). Time-dependent and concentration-dependent analysis of each compound are performed.
Activity testing of imidazole library members on Xanthomonas. Biofilm formation on PVC microtiter wells was accomplished using Xanthomonas strains Xcv 135 (known to infect peppers and tomatoes) and Xcv 5 (known to infect tomatoes but not peppers) as models. The Starting Optical Density (OD at 600 nm) for biofilm attachment assay was 0.55, the temperature for this assay was 28° C., the duration of incubation was 6 hours under, and the assay was static.
Biofilm inhibition results are as follows for screens with Xcv 135. The Xcv 5 strain is tested in the same manner.

[2] = tested on: marine α-proteobacterium R. salexigens; conditions: documented in literature (Yamada et al. 1997); cited from earlier work
calcium channels = conditions: known from literature (Bickmeyer, Toxicon 2005); cited from earlier work

Row | SMILES | % Inhibition at 20 μM (vs. Xcv 135) [1] | anti-biofouling properties: biofilm development in R. salexigens [2] | activity of calcium channels (calcium channels)
1 | Nc1nc2c([nH]1)C[C@@H](CNC(=O)c1cc(Br)c(Br)[nH]1)[C@H](CNC(=O)c1cc(Br)c(Br)[nH]1)C2 (racemic) [Formula (II)(b)(vi)(trans)(±)] | 71% |  | 
2 | Nc1nc([C@@H]2c3[nH]c(N)nc3C[C@H](CNC(=O)c3cc(Br)c[nH]3)[C@H]2CNC(=O)c2cc(Br)c(Br)[nH]2)c[nH]1 [bromoageliferin] |  | inhibiting biofilm development | modulate the activity of calcium channels
3 | Nc1ncc(/C=C/CNC(=O)c2cc(Br)c(Br)[nH]2)[nH]1 [oroidin, oroidin hydrochloride] |  | inhibiting biofilm development | 
4 | Nc1nc2c([nH]1)C[C@@H](CNC(=O)c1cc(Br)c[nH]1)[C@H](CNC(=O)c1cc(Br)c[nH]1)C2 (racemic) [Formula (II)(b)(v)(trans)(±)] | 0% |  | 
5 | NC[C@@H]1Cc2nc(N)[nH]c2C[C@H]1CN (racemic) [Formula (II)(a)(±)] | 0% |  | 
